Test results reported in patent US20250221405A1, “ROOT NODULE FORMATION-PROMOTING COMPOSITION, AND ROOT HAIR FORMATION-PROMOTING COMPOSITION” (KANEKA CORPORATION, priority 2022, published 2025).

Key:
soybeans (Fukuyutaka) [1] = experiment: Experimental Example 1: seed coating, number of root nodules; format: in vivo, soybean; settings: Table 1-2
Method: (§1) A solution of SF, SL, or RL dissolved in water (a composition for promoting root nodule formation) as the following amount in each of the following treatments was prepared. The seeds of soybeans (Fukuyutaka) were coated using the solution in an amount of 800 μL/100 g seed to obtain coated seeds.
(§2) A 9 cm poly pot was filled with culture soil and seeded with three coated seeds in each pot.
(§3) After seeding, the coated seeds were cultivated in a greenhouse set at 28° C. during the day (14h) and 18° C. at night (10h).
(§4) Seven days after the seeding, the soybeans in each pot were thinned to one plant, and each pot was irrigated with 4.3 ml of a mixture of rhizobium materials (rhizobium and azospirillum) mixed with water at a proportion of 10 g/L.
(§5) Twenty-one days after the irrigation, the roots were washed with water so as not to remove root nodules, the culture soil was removed, and then, the root nodules formed on the roots were collected.
After the seeding, each pot was fertilized with ½ Hoagland solution once a week. In addition, experiments were conducted on eight pots (eight plants) in each treatment.
(§6) A plurality of experiments were conducted by changing the type of the composition for promoting root nodule formation and the like. Tables 1-1 and 1-2 show the date of seeding, the date of irrigating, the date of investigating the number of root nodules, the amount of SF, SL, or RL in the composition for promoting root nodule formation, and the investigation result of the number of root nodules. Note that the number of root nodules is indicated by a relative value with Tl taken as 100, with a numerical value in parentheses indicating the average number of root nodules actually measured (pieces/plant).

soybeans (Fukuyutaka) [2] = experiment: Experimental Example 2: soil irrigation with composition comprising rhizobium materials, number of root nodules; format: in vivo, soybean; settings: Table 2-2, irrigation
Method: (§7) For each of the following treatment, to a mixture of rhizobium materials (rhizobium and azospirillum) mixed with water at a proportion of 10 g/L, SF, SL, or RL was added in the following amount to prepare a solution comprising the rhizobium materials and SF, SL, or RL (a composition for promoting root nodule formation).
A 9 cm poly pot was filled with culture soil and seeded with three seeds of soybeans (Fukuyutaka) in each pot.
(§8) After seeding, the seeds were cultivated in a greenhouse set at 28° C. during the day (14h) and 18° C. at night (10h).
as §4, with “ml of the composition for promoting root nodule formation (in the treatment T1, a mixture” for “ml of a mixture”, “of 10 g/L).” for “of 10 g/L.”
as §5
(§9) After the seeding, each pot was fertilized with ½ Hoagland solution (50 mL) once a week. In addition, experiments were conducted on eight pots (eight plants) in each treatment.
as §6, with “2-1” for “1-1”, “2-2” for “1-2”, “nodules,” for “nodules, the amount of SF, SL, or RL in”, “T1” for “Tl”

soybeans (Fukuyutaka) [3] = experiment: Experimental Example 3: seed coating with biosurfactant and/or KVP, number of root nodules; format: in vivo, soybean; settings: Table 3-2
Method: as §1, with “RL and/or KVP” for “RL”
as §2, §3
Seven days after the seeding, the soybeans in each pot were thinned to one plant, and each pot was irrigated with 4.3 mL of a mixture of rhizobium materials (rhizobium and azospirillum) mixed with water at a proportion of 10 g/L.
as §5, §9
as §6, with “3-1” for “1-1”, “3-2” for “1-2”, “amounts” for “date of seeding, the date of irrigating, the date of investigating the number of root nodules, the amount”, “RL and/or KVP” for “RL”, “formation” for “formation,”

soybeans (Fukuyutaka) [4] = experiment: Experimental Example 4: soil irrigation with biosurfactant and/or KVP, root nodule number and weight, root weight; format: in vivo, soybean; settings: with rhizobium materials
Method: as §7, with “treatments,” for “treatment,”
A 9 cm poly pot was filled with sterilized fertilizer-free culture soil (Heiwa) and seeded three seeds of soybeans (Fukuyutaka) in each pot.
as §8
as §4, with “ml of the composition for promoting root nodule formation (in the treatment T1, a mixture” for “ml of a mixture”, “of 10 g/L).” for “of 10 g/L.”
as §5, §9
as §6, with “4-1” for “1-1”, “4-2” for “1-2”, “nodules,” for “nodules, the amount of SF, SL, or RL in”, “(pieces/plant). In addition, fresh root nodule weight means the weight of root nodules before drying on the day of collection and is indicated by a relative value with Tl taken as 100. Dried underground part weight means the weight of roots dried for 48 hours at 80° C. and indicated by a relative value with Tl taken as 100.” for “(pieces/plant).”

[5] = tested on: Japanese mustard spinach (Haru no Senbatsu); experiment: Experimental Example 5: foliar application, microscopic observation of root hair; format: in vivo; design: key: those with a significant root hair increase observed were evaluated as AA; those with a root hair increase observed were evaluated as BB; those with no root hair increase observed were evaluated as CC; those with an overall or partial root hair decrease observed were evaluated as DD
Method: An observation tank formed with ½ MS agar medium (0.8% agar) was prepared in an acrylic tank. Japanese mustard spinach (Haru no Senbatsu) was seeded near the surface of the observation tank. After seeding, the Japanese mustard spinach was cultivated in an incubator set in a light period (6:00-18:00, temperature 26° C., illuminance 120 μmol/m^2·s) and a dark period (18:00-6:00, temperature 18° C.). Twelve to fourteen days after the seeding, the following liquid (a composition for promoting root hair formation) was applied on the leaf surfaces of the plant body (foliar application) so as not to drip on the agar in each of the following treatments. […] A plurality of experiments were conducted by changing the date of seeding, the date of foliar application, the date of observation, and the type of the composition for promoting root hair formation and the like. Tables 5 to 9 show the composition for promoting root hair formation, the outline of operation and the observation results of root hair.

[6] = seed coating SL or RL 0.5 g/t seed (diluted 16000 times)
[7] = seed coating SL or RL 5 g/t seed (diluted 1600 times)
[8] = Table 4-2, single agent diluted 1000 times
[9] = Table 4-2, single agent diluted 10000 times

Substance	Number of Root Nodules, average number actually measured (soybeans (Fukuyutaka) [1]; seed coating 1 g/t seed) [pieces/plant]	Number of Root Nodules, relative value with T1 taken as 100 (soybeans (Fukuyutaka) [1]; seed coating 1 g/t seed)	Number of Root Nodules, average number actually measured (soybeans (Fukuyutaka) [1]; seed coating 10 g/t seed) [pieces/plant]	Number of Root Nodules, relative value with T1 taken as 100 (soybeans (Fukuyutaka) [1]; seed coating 10 g/t seed)	Number of Root Nodules, average number actually measured (soybeans (Fukuyutaka) [2]; diluted 1000 times) [pieces/plant]	Number of Root Nodules, relative value with T1 taken as 100 (soybeans (Fukuyutaka) [2]; diluted 1000 times)	Number of Root Nodules, average number actually measured (soybeans (Fukuyutaka) [2]; diluted 5000 times) [pieces/plant]	Number of Root Nodules, relative value with T1 taken as 100 (soybeans (Fukuyutaka) [2]; diluted 5000 times)	Number of Root Nodules, average number actually measured (soybeans (Fukuyutaka) [2]; diluted 10000 times) [pieces/plant]	Number of Root Nodules, relative value with T1 taken as 100 (soybeans (Fukuyutaka) [2]; diluted 10000 times)	Number of Root Nodules, average number actually measured (soybeans (Fukuyutaka) [3]; [6]) [pieces/plant]	Number of Root Nodules, relative value with T1 taken as 100 (soybeans (Fukuyutaka) [3]; [6])	Number of Root Nodules, average number actually measured (soybeans (Fukuyutaka) [3]; [7]) [pieces/plant]	Number of Root Nodules, relative value with T1 taken as 100 (soybeans (Fukuyutaka) [3]; [7])	Dried Underground Part Weight, relative value with T1 taken as 100 (soybeans (Fukuyutaka) [4]; [8])	Fresh Root Nodule Weight, relative value with T1 taken as 100 (soybeans (Fukuyutaka) [4]; [8])	Number of Root Nodules, average number actually measured (soybeans (Fukuyutaka) [4]; [8]) [pieces/plant]	Number of Root Nodules, relative value with T1 taken as 100 (soybeans (Fukuyutaka) [4]; [8])	Dried Underground Part Weight, relative value with T1 taken as 100 (soybeans (Fukuyutaka) [4]; [9])	Fresh Root Nodule Weight, relative value with T1 taken as 100 (soybeans (Fukuyutaka) [4]; [9])	further results
sophorolipid [SL]	15.3	131	13.3	114	15.7	134	12.1	104	11.9	102	24.5	104	24.9	106	102	113	18.5	110	185	105	Number of Root Nodules, average number actually measured (soybeans (Fukuyutaka) [1]; seed coating 0.1 g/t seed): 11.8 pieces/plant; Number of Root Nodules, relative value with T1 taken as 100 (soybeans (Fukuyutaka) [1]; seed coating 0.1 g/t seed): 101; Number of Root Nodules, average number actually measured (soybeans (Fukuyutaka) [4]; [9]): 17.8 pieces/plant; Number of Root Nodules, relative value with T1 taken as 100 (soybeans (Fukuyutaka) [4]; [9]): 105; Observation Result (root hair) ([5]; Table 6, aqueous solution diluted 1000 times): BB; Observation Result (root hair) ([5]; Table 6, aqueous solution diluted 2000 times): BB
rhamnolipid [RL]	16.0	137	13.2	113	13.6	116	13.6	116	13.4	115	24.6	105	25.3	107	105	115	19.5	116	105	114	Number of Root Nodules, average number actually measured (soybeans (Fukuyutaka) [1]; seed coating 50 g/t seed): 15.3 pieces/plant; Number of Root Nodules, relative value with T1 taken as 100 (soybeans (Fukuyutaka) [1]; seed coating 50 g/t seed): 131; Number of Root Nodules, average number actually measured (soybeans (Fukuyutaka) [4]; [9]): 18.5 pieces/plant; Number of Root Nodules, relative value with T1 taken as 100 (soybeans (Fukuyutaka) [4]; [9]): 110; Observation Result (root hair) ([5]; Table 7, aqueous solution diluted 1000 times): BB; Observation Result (root hair) ([5]; Table 7, aqueous solution diluted 2000 times): BB; Observation Result (root hair) ([5]; Table 7, aqueous solution diluted 5000 times): BB
